These are literature values, as cited in patent US20080021079A1, “Compounds, Compositions, and Methods” (priority 2003, published 2008).

The structures appear in SMILES notation.

The data set deals with A549 cells.
Take `NC(=O)NO` [hydroxyurea]: the GI50 is 500000 nM.

For `COc1cccc2c1C(=O)c1c(O)c3c(c(O)c1C2=O)C[C@@](O)(C(=O)CO)C[C@@H]3O[C@H]1C[C@H](N)[C@H](O)[C@H](C)O1` [doxorubicin], the concentration for 50% growth inhibition (GI50) was 63 nM.

Regarding `CC(=O)O[C@H]1C(=O)[C@@]2(C)[C@H]([C@H](OC(=O)c3ccccc3)[C@]3(O)C[C@H](OC(=O)[C@H](O)[C@@H](NC(=O)c4ccccc4)c4ccccc4)C(C)=C1C3(C)C)[C@]1(OC(C)=O)CO[C@@H]1C[C@@H]2O` [paclitaxel], the GI50 was 4 nM.

As for `O=c1[nH]cc(F)c(=O)[nH]1` [5-fluorouracil], the concentration for 50% growth inhibition (GI50) is 1000 nM.
